Columns and labels:
mouse = system: mouse; design: method as in PMID 4962802, PMID 6379027; settings: PO; cited from earlier work
Whole blood stability = assay type: in vitro ADME, rat; settings: fresh whole blood, male Sprague-Dawley rat blood, read-out: Compound remaining (% of 0 min)
Description: C16 (1 μM) or vehicle (DMSO) were incubated with fresh rat blood (Sprague Dawley, male) at 37°C at 5 time points in duplicate over a 120-min period. The final DMSO concentration in the incubation was 0.25%. Reactions were terminated following 0, 15, 30, 60 and 120 min by acetonitrile containing internal standard. The sampling plate was centrifuged (3000 rpm, 45 min, 4 °C) and the supernatants from each time point analyzed for parent compound by HPLC-MS/MS. The percentage of parent compound remaining at each time point relative to the 0-min sample was then calculated from HPLC-MS/MS peak area ratios (compound peak area/internal standard peak area).
C. Stability and metabolism
For details on ADME experiments not included underneath , please consult ref. [1].
C.A. Whole blood stability
Column: Kinetex XB-C18 column, 2.6 µm (150 x2.1 mm)
Mobile phase A: H2O + 0.1% v/v Formic Acid
Mobile phase B: MeCN + 0.1% v/v Formic Acid
Autosampler syringe volume: 100 µL
Weak wash: MeOH:H2O 1:9 v/v
Strong wash: MeOH:H2O 95:5 v/v
Table K. Gradient program.
Mass spectrometric conditions
Model: AB Sciex API5500 QTrap
Mode: Multiple ion monitoring (MIM)
Table L. MIM (parent to parent transitions).
The areas and percentages for the parent and metabolites have been calculated using MIM data where parent to parent transitions have been used, and assume that each metabolite has the same point of ionisation and the sensitivity of the metabolite has not been affected by the biotransformation.

Compound	LD50 (mouse) [mg/kg]	remaining at 15 min, 1 µM (Whole blood stability; 15 min) [%]	remaining at 30 min, 1 µM (Whole blood stability; 30 min) [%]	remaining at 60 min, 1 µM (Whole blood stability; 60 min) [%]	remaining at 120 min, 1 µM (Whole blood stability; 120 min) [%]
C[S+](C)[O-] [DMSO, dimethyl sulfoxide]	21000 to 28000	–	–	–	–
COc1ccc([C@@H]2Sc3ccccc3N(CCN(C)C)C(=O)[C@@H]2OC(C)=O)cc1 [diltiazem, reference compound]	–	99.9	91.1	74.3	45.5
